The record followed here is patent publication US10280145B2 (Toray Industries, Inc., priority 2015, dated 2019).

Each structure is given as a SMILES string.

In this test the target is T1, intracellular domain of DDR1 (Homo sapiens, UniProt Q08345).
T1 construct: the intracellular domain of DDR1 (in a final concentration of 5 ng/μL) (Carna Biosciences, Inc.); purchased Carna Biosciences, Inc
As to the kind of experiment: Evaluation of DDR1 inhibition activity with HTRF KinEASE-TK kit. It counts as biochemical. Particulars: DDR1 intracellular domain 5 ng/μL, ATP 25 μm/L, TK Substrate-biotin 1000 nmol/L, room temperature, one hour. The procedure:
The DDR1 inhibition activity in the compounds of Examples 1 to 80 was evaluated with HTRF® KinEASE-TK kit (Cisbio Bioassays).
Each test substance was dissolved in dimethyl sulfoxide and then used for the evaluation as described below. Moreover, each of test substances and reagents was diluted in the kinase buffer (Cisbio Bioassays) prepared by adding thereto MgCl2, MnCl2, DTT, and the Supplemental Enzyme buffer (Cisbio Bioassays) to concentrations of 5 mmol/L, 0.5 mmol/L, 0.25 mmol/L, and 50 nmol/L, respectively, and then used. Each test substance (in DMSO in a final concentration of 1%), the intracellular domain of DDR1 (in a final concentration of 5 ng/μL) (Carna Biosciences, Inc.), the phosphate donor ATP (in final concentration of 25 μm/L) (Sigma), and the substrate TK Substrate-biotin (in a final concentration of 1000 nmol/L) (Cisbio Bioassays) were added to a 384-well black plate (Corning) and allowed to react at room temperature for one hour. After completion of the reaction, the TK Antibody-Cryptate (Cisbio Bioassays) and the Streptavidin-XL665 (Cisbio Bioassays) were added thereto and allowed to react at room temperature for one hour. In addition, the plate was provided with a well to which a test substance was not added, and with a well to which a test substance and the intracellular domain of DDR1 were […].
The fluorescence intensity in each well was measured using a multi-label counter (Envision, PerkinElmer; excitation wavelength: 320 nm, measurement wavelength: 665 nm and 620 nm) to calculate a ratio (the fluorescence intensity at 665 nm/the fluorescence intensity at 620 nm). The inhibition rate (%) of a test substance at each concentration was calculated based on the formula below: Inhibition rate (%)=([the ratio obtained from the well containing no test substance]−[the ratio from a well containing a test substance])/([the ratio obtained from the well containing no test substance]−[the ratio obtained from the well containing no intracellular domain of DDR1 and no test substance])×100.
The calculated inhibition rates were fitted to a sigmoidal dose-response curve by regression analysis using the Prism 5.04 (GraphPad Software, Inc.) to calculate the IC50 value of the test substance.

T1 sequence (Q08345 439-913 limits assumed): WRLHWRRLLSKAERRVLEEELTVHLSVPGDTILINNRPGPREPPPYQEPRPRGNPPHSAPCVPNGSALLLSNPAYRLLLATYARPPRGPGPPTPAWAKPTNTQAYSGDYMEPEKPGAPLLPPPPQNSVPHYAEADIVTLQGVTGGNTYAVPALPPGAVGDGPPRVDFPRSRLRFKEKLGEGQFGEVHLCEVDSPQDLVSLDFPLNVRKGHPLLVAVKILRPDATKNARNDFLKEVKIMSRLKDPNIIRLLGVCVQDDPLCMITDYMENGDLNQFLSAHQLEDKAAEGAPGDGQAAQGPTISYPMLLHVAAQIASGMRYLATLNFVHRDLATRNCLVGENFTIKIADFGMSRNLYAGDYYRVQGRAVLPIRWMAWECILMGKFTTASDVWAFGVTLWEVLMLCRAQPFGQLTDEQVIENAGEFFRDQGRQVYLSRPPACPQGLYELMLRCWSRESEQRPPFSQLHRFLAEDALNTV

Regarding `CNc1nccc(O[C@H]2CC[C@H](NC(=O)Nc3cc(OC(F)(F)F)cc(CO)c3OC)CC2)n1` [Example 80, 1-(3-(hydroxymethyl)-2-methoxy-5-(trifluoromethoxy)phenyl)-3-(trans-4-((2-(methylamino)pyrimidin-4-yl)oxy)cyclohexyl)urea], the IC50 was 24.9 nM. This counts as double-digit nanomolar.

Regarding `O=C(Nc1cc(C(F)(F)F)ccc1O[C@H]1CCNC1)N[C@H]1CC[C@H](OCc2ccncc2)CC1` [Example 36, 1-(trans-4-(pyridin-4-ylmethoxy)cyclohexyl)-3-(2-((S)-pyrrolidin-3-yloxy)-5-(trifluoromethyl)phenyl)urea], half-maximal inhibition (IC50) required 140 nM. This IC50 is about 5.6-fold higher than that of the compound before.

`COc1ccc(OC(F)(F)F)cc1NC(=O)N[C@H]1CC[C@H](Oc2ccnc(-c3cccnc3)n2)CC1` [Example 39, 1-(2-methoxy-5-(trifluoromethoxy)phenyl)-3-(trans-4-((2-(pyridin-3-yl)pyrimidin-4-yl)oxy)cyclohexyl)urea] came in with a half-maximal inhibitory concentration (IC50) of 236 nM.

As for `O=C(Nc1cc(OC(F)(F)F)ccc1OC1COC1)N[C@H]1CC[C@H](Oc2ccnc(N3CCOCC3)n2)CC1` [Example 44, 1-(trans-4-((2-morpholinopyrimidin-4-yl)oxy)cyclohexyl)-3-(2-(oxetan-3-yloxy)-5-(trifluoromethoxy)phenyl)urea], the IC50 was found to be 128 nM.

As for `O=C(Nc1ccc(CO)c(C(F)(F)F)c1)N[C@H]1CC[C@H](Oc2ccnc(N3CCOCC3)n2)CC1` [Example 53, 1-(4-(hydroxymethyl)-3-(trifluoromethyl)phenyl)-3-(trans-4-((2-morpholinopyrimidin-4-yl)oxy)cyclohexyl)urea], inhibition was half-maximal at 254 nM (IC50).

Take `O=C(Nc1cccc(C(F)(F)F)c1)N[C@H]1CC[C@H](OCc2ccncc2)CC1` [Example 22, 1-(trans-4-(pyridin-4-ylmethoxy)cyclohexyl)-3-(3-(trifluoromethyl)phenyl)urea]: the IC50 worked out at 234 nM.

In the case of `COc1ccc(S(F)(F)(F)(F)F)cc1NC(=O)N[C@H]1CC[C@H](Oc2ccnc(N3CCOCC3)n2)CC1` [Example 4, 1-(2-methoxy-5-(pentafluorosulfanyl)phenyl)-3-(trans-4-((2-morpholinopyrimidin-4-yl)oxy)cyclohexyl)urea], the IC50 is 427 nM.

In the case of `O=C(Nc1cc(S(F)(F)(F)(F)F)ccc1OC1COC1)N[C@H]1CC[C@H](Oc2ncccn2)CC1` [Example 14, 1-(2-(oxetan-3-yloxy)-5-(pentafluorosulfanyl)phenyl)-3-(trans-4-(pyrimidin-2-yloxy)cyclohexyl)urea], inhibition was half-maximal at 76.7 nM (IC50).

For `O=C(Nc1cc(C(F)(F)F)ccc1OC1COC1)N[C@H]1CC[C@H](OCc2cccnc2)CC1` [Example 76, 1-(2-(oxetan-3-yloxy)-5-(trifluoromethyl)phenyl)-3-(trans-4-(pyridin-3-ylmethoxy)cyclohexyl)urea], half-maximal inhibition (IC50) required 14.1 nM.

Take `CC(=O)N1CCC(Oc2ccc(C(F)(F)F)cc2NC(=O)N[C@H]2CC[C@H](OCc3ccncc3)CC2)CC1` [Example 34, 1-(2-((1-acetylpiperidin-4-yl)oxy)-5-(trifluoromethyl)phenyl)-3-(trans-4-(pyridin-4-ylmethoxy)cyclohexyl)urea]: half-maximal inhibition (IC50) required 51 nM.

In the case of `COc1c(CO)cc(C(F)(F)F)cc1NC(=O)N[C@H]1CC[C@H](Oc2ccc(-c3ccccc3)nn2)CC1` [Example 17, 1-(3-(hydroxymethyl)-2-methoxy-5-(trifluoromethyl)phenyl)-3-(4-((6-phenylpyridazin-3-yl)oxy)cyclohexyl)urea], the midpoint of inhibition, the IC50, lay at 189 nM.

The compound `COc1ccc(OC(F)(F)F)cc1NC(=O)N[C@H]1CC[C@H](Oc2ccnc(NCCO)n2)CC1` [Example 62, 1-(trans-4-((2-((2-hydroxyethyl)amino)pyrimidin-4-yl)oxy)cyclohexyl)-3-(2-methoxy-5-(trifluoromethoxy)phenyl)urea] displayed an IC50 of 138 nM.

`O=C(Nc1cc(C(F)(F)F)ccc1F)N[C@H]1CC[C@H](OCc2ccncc2)CC1` [Example 27, 1-(2-fluoro-5-(trifluoromethyl)phenyl)-3-(trans-4-(pyridin-4-ylmethoxy)cyclohexyl)urea]: the IC50 is 258 nM.

`O=C1CN(c2ccc(C(F)(F)F)cc2NC(=O)N[C@H]2CC[C@H](Oc3ccnc(N4CCOCC4)n3)CC2)CCN1` [Example 8, 1-(trans-4-((2-morpholinopyrimidin-4-yl)oxy)cyclohexyl)-3-(2-(3-oxopiperazin-1-yl)-5-(trifluoromethyl)phenyl)urea]: half-maximal inhibition (IC50) required 46.3 nM. Against the preceding compound, the IC50 is about 5.6-fold lower.

With `COc1ccc(C(F)(F)F)cc1NC(=O)N[C@H]1CC[C@H](COCc2ccncc2)CC1` [Example 75, 1-(2-methoxy-5-(trifluoromethyl)phenyl)-3-(trans-4-((pyridin-4-ylmethoxy)methyl)cyclohexyl)urea], the IC50 turned out to be 20 nM.

Take `CNc1cc(O[C@H]2CC[C@H](NC(=O)Nc3cc(C(F)(F)F)cc(CO)c3OC)CC2)ncn1` [Example 71, 1-(3-(hydroxymethyl)-2-methoxy-5-(trifluoromethyl)phenyl)-3-(trans-4-((6-(methylamino)pyrimidin-4-yl)oxy)cyclohexyl)urea]: the IC50 stood at 10.8 nM.

`COc1c(CO)cc(C(F)(F)F)cc1NC(=O)N[C@H]1CC[C@H](Oc2ncccn2)CC1` [Example 12, 1-(3-(hydroxymethyl)-2-methoxy-5-(trifluoromethyl)phenyl)-3-(trans-4-(pyrimidin-2-yloxy)cyclohexyl)urea] came in with an IC50 of 96.7 nM. Against the preceding compound, the IC50 is about 9-fold higher.

Compound `COc1c(CO)cc(C(F)(F)F)cc1NC(=O)N[C@H]1CC[C@H](Oc2ccnc(N3CCOCC3)n2)CC1` [Example 6, 1-(3-(hydroxymethyl)-2-methoxy-5-(trifluoromethyl)phenyl)-3-(trans-4-((2-morpholinopyrimidin-4-yl)oxy)cyclohexyl)urea] came in with an IC50 of 62.2 nM.

Consider `CNc1nccc(O[C@H]2CC[C@H](NC(=O)Nc3cc(C(F)(F)F)ccc3OC3COC3)CC2)n1` [Example 64, 1-(trans-4-((2-(methylamino)pyrimidin-4-yl)oxy)cyclohexyl)-3-(2-(oxetan-3-yloxy)-5-(trifluoromethyl)phenyl)urea], for which it took 54.5 nM to reach half-maximal inhibition (IC50).

For the compound `O=C(Nc1cc(C(F)(F)F)ccc1OC1COC1)N[C@H]1CC[C@H](OCc2ccncc2)CC1` [Example 56, 1-(2-(oxetan-3-yloxy)-5-(trifluoromethyl)phenyl)-3-(trans-4-(pyridin-4-ylmethoxy)cyclohexyl)urea], the concentration for half-maximal inhibition (IC50) was found to be 55.8 nM.

As to `COc1ccc(OC(F)(F)F)cc1NC(=O)N[C@H]1CC[C@H](Oc2ccc(-c3ccccc3)nn2)CC1` [Example 16], the IC50 is 963 nM.

Compound `COc1c(CO)cc(OC(F)(F)F)cc1NC(=O)N[C@H]1CC[C@H](Oc2ccnc(N3CCOCC3)n2)CC1` [Example 50, 1-(3-(hydroxymethyl)-2-methoxy-5-(trifluoromethoxy)phenyl)-3-(trans-4-((2-morpholinopyrimidin-4-yl)oxy)cyclohexyl)urea] yielded an IC50 of 35.1 nM.

Compound `COc1ccc(OC(F)(F)F)cc1NC(=O)N[C@H]1CC[C@H](OCc2cccnc2)CC1` [Example 68, 1-(2-methoxy-5-(trifluoromethoxy)phenyl)-3-(trans-4-(pyridin-3-ylmethoxy)cyclohexyl)urea] registered an IC50 of 16.6 nM.

`COc1c(CO)cc(C(F)(F)F)cc1NC(=O)N[C@H]1CC[C@H](OCc2ccncc2)CC1` [Example 21, 1-(3-(hydroxymethyl)-2-methoxy-5-(trifluoromethyl)phenyl)-3-(trans-4-(pyridin-4-ylmethoxy)cyclohexyl)urea] registered an IC50 of 39.3 nM.
